Measured values taken from ChEMBL document CHEMBL5537158, “Polymyxins with Potent Antibacterial Activity against Colistin-Resistant Pathogens: Fine-Tuning Hydrophobicity with Unnatural Amino Acids” (J Med Chem, 2024).
≈ marks a conversion by molar mass, not a printed value. Positions of bridges follow the written chain, without caps; N, C: chain ends. Non-standard residues stand in square brackets, D forms with d. Residues, ends and D or L forms follow the SMILES beside them. *: point of attachment. dPhe(3,4,5-F3) = N[C@H](Cc1cc(F)c(F)c(F)c1)C(=O)O; Benzoyl(4-Ph) = O=C(c1ccc(-c2ccccc2)cc1)*; dPhe(4-Cl) = N[C@H](Cc1ccc(Cl)cc1)C(=O)O; Gly(octyl) = CCCCCCCC[C@H](N)C(=O)O; hPhe = N[C@@H](CCc1ccccc1)C(=O)O; hLeu = CC(C)CC[C@H](N)C(=O)O; Octanoyl = CCCCCCCC(=O)*; Dab = NCC[C@H](N)C(=O)O

Key:
Type in all cases: functional
Pseudomonas aeruginosa [1] = experiment: Antimicrobial activity against colistin resistant Pseudomonas aeruginosa 7197/19 assessed as bacterial growth inhibition incubated for 20 hrs by broth microdilution method
Escherichia coli [2] = experiment: Antibacterial activity against […] Escherichia coli ATCC 25922 assessed as bacterial growth inhibition incubated for 20 hrs by broth microdilution method
Escherichia coli [3] = experiment: Antibacterial activity against Escherichia coli ATCC 25922 assessed as bacterial growth inhibition incubated for 20 hrs by broth microdilution method
Klebsiella pneumoniae [4] = experiment: Antimicrobial activity against colistin resistant Klebsiella pneumoniae ATCC 13883 assessed as bacterial growth inhibition incubated for 20 hrs by broth microdilution method
Escherichia coli [5] = experiment: Antibacterial activity against […] Escherichia coli clinical isolate 2 assessed as bacterial growth inhibition incubated for 20 hrs by broth microdilution method
Klebsiella pneumoniae [6] = experiment: Antimicrobial activity against colistin resistant Klebsiella pneumoniae clinical isolate 4 assessed as bacterial growth inhibition incubated for 20 hrs by broth microdilution method
Acinetobacter baumannii [7] = experiment: Antimicrobial activity against colistin resistant Acinetobacter baumannii clinical isolate 3 assessed as bacterial growth inhibition incubated for 20 hrs by broth microdilution method
Escherichia coli [8] = experiment: Antibacterial activity against […] Escherichia coli clinical isolate 1 assessed as bacterial growth inhibition incubated for 20 hrs by broth microdilution method
Klebsiella pneumoniae [9] = experiment: Antimicrobial activity against colistin resistant Klebsiella pneumoniae clinical isolate 2 assessed as bacterial growth inhibition incubated for 20 hrs by broth microdilution method
Klebsiella pneumoniae [10] = experiment: Antimicrobial activity against colistin resistant Klebsiella pneumoniae clinical isolate 3 assessed as bacterial growth inhibition incubated for 20 hrs by broth microdilution method
Escherichia coli [11] = experiment: Antibacterial activity against […] Escherichia coli clinical isolate 3 assessed as bacterial growth inhibition incubated for 20 hrs by broth microdilution method
Pseudomonas aeruginosa [12] = experiment: Antimicrobial activity against Pseudomonas aeruginosa PAO1 assessed as bacterial growth inhibition incubated for 20 hrs by broth microdilution method
Acinetobacter baumannii [13] = experiment: Antimicrobial activity against Acinetobacter baumannii ATCC 19606 assessed as bacterial growth inhibition incubated for 20 hrs by broth microdilution method
Acinetobacter baumannii [14] = experiment: Antimicrobial activity against colistin resistant Acinetobacter baumannii clinical isolate 1 assessed as bacterial growth inhibition incubated for 20 hrs by broth microdilution method
Klebsiella pneumoniae [15] = experiment: Antimicrobial activity against Klebsiella pneumoniae ATCC 13883 assessed as bacterial growth inhibition incubated for 20 hrs by broth microdilution method
Escherichia coli [16] = experiment: Antimicrobial activity against […] Escherichia coli harboring mcr-1 assessed as bacterial growth inhibition incubated for 20 hrs by broth microdilution method
Pseudomonas aeruginosa [17] = experiment: Antimicrobial activity against Pseudomonas aeruginosa ATCC 27853 assessed as bacterial growth inhibition incubated for 20 hrs by broth microdilution method
Klebsiella pneumoniae [18] = experiment: Antimicrobial activity against colistin resistant Klebsiella pneumoniae clinical isolate 1 assessed as bacterial growth inhibition incubated for 20 hrs by broth microdilution method
Acinetobacter baumannii [19] = experiment: Antimicrobial activity against colistin resistant Acinetobacter baumannii clinical isolate 4 assessed as bacterial growth inhibition incubated for 20 hrs by broth microdilution method
Acinetobacter baumannii [20] = experiment: Antimicrobial activity against colistin resistant Acinetobacter baumannii ATCC 3658/17 assessed as bacterial growth inhibition incubated for 20 hrs by broth microdilution method
Pseudomonas aeruginosa [21] = experiment: Antimicrobial activity against colistin resistant Pseudomonas aeruginosa clinical isolate 1 assessed as bacterial growth inhibition incubated for 20 hrs by broth microdilution method
Acinetobacter baumannii [22] = experiment: Antimicrobial activity against colistin resistant Acinetobacter baumannii ATCC 19606 assessed as bacterial growth inhibition incubated for 20 hrs by broth microdilution method
Klebsiella pneumoniae [23] = experiment: Antimicrobial activity against colistin resistant Klebsiella pneumoniae clinical isolate 5 assessed as bacterial growth inhibition incubated for 20 hrs by broth microdilution method
Klebsiella pneumoniae [24] = experiment: Antimicrobial activity against colistin resistant Klebsiella pneumoniae clinical isolate 6 assessed as bacterial growth inhibition incubated for 20 hrs by broth microdilution method
Pseudomonas aeruginosa [25] = experiment: Potency index, ratio of polymyxin B MIC to test compound MIC for antibacterial activity against colistin resistant Pseudomonas aeruginosa clinical isolate 1
Pseudomonas aeruginosa [26] = experiment: Potency index, ratio of colistin MIC to test compound MIC for antibacterial activity against colistin resistant Pseudomonas aeruginosa clinical isolate 1
Acinetobacter baumannii [27] = experiment: Antimicrobial activity against colistin resistant Acinetobacter baumannii clinical isolate 2 assessed as bacterial growth inhibition incubated for 20 hrs by broth microdilution method

| Compound | MIC (Pseudomonas aeruginosa [1]) | MIC (Escherichia coli [2]) | MIC (Escherichia coli [3]) | MIC (Klebsiella pneumoniae [4]) | MIC (Escherichia coli [5]) | MIC (Klebsiella pneumoniae [6]) | MIC (Acinetobacter baumannii [7]) | MIC (Escherichia coli [8]) | MIC (Klebsiella pneumoniae [9]) | MIC (Klebsiella pneumoniae [10]) | MIC (Escherichia coli [11]) | MIC (Pseudomonas aeruginosa [12]) | MIC (Acinetobacter baumannii [13]) | MIC (Acinetobacter baumannii [14]) | MIC (Klebsiella pneumoniae [15]) | MIC (Escherichia coli [16]) | MIC (Pseudomonas aeruginosa [17]) | MIC (Klebsiella pneumoniae [18]) | MIC (Acinetobacter baumannii [19]) | MIC (Acinetobacter baumannii [20]) | further results |
| --- | --- | --- | --- | --- | --- | --- | --- | --- | --- | --- | --- | --- | --- | --- | --- | --- | --- | --- | --- | --- | --- |
| CCCCCCCC[C@@H]1NC(=O)[C@@H](Cc2ccccc2)NC(=O)[C@H](CCN)NC(=O)[C@@H](NC(=O)[C@H](CCN)NC(=O)[C@@H](NC(=O)[C@H](CCN)NC(=O)CCCCCCC)[C@@H](C)O)CCNC(=O)[C@H]([C@@H](C)O)NC(=O)[C@H](CCN)NC(=O)[C@H](CCN)NC1=O (Octanoyl-[Dab]T[Dab][Dab][Dab][dF][Gly(octyl)][Dab][Dab]T; lactam 4-C) | 0.25 µg/mL (≈ 0.201 µM) | 0.5 µg/mL (≈ 0.401 µM) | 0.5 µg/mL (≈ 0.401 µM) | 16 µg/mL (≈ 12.8 µM) | 4 µg/mL (≈ 3.21 µM) | 16 µg/mL (≈ 12.8 µM) | 0.25 µg/mL (≈ 0.201 µM) | 4 µg/mL (≈ 3.21 µM) | 16 µg/mL (≈ 12.8 µM) | 16 µg/mL (≈ 12.8 µM) | 4 µg/mL (≈ 3.21 µM) | 0.5 µg/mL (≈ 0.401 µM) | 0.25 µg/mL (≈ 0.201 µM) | 4 µg/mL (≈ 3.21 µM) | 0.25 µg/mL (≈ 0.201 µM) | – | – | – | – | – | – |
| CCCCCCCC(=O)N[C@@H](CCN)C(=O)N[C@H](C(=O)N[C@@H](CCN)C(=O)N[C@H]1CCNC(=O)[C@H]([C@@H](C)O)NC(=O)[C@H](CCN)NC(=O)[C@H](CCN)NC(=O)[C@H](CCC(C)C)NC(=O)[C@@H](Cc2ccccc2)NC(=O)[C@H](CCN)NC1=O)[C@@H](C)O (Octanoyl-[Dab]T[Dab][Dab][Dab][dF][hLeu][Dab][Dab]T; lactam 4-C) | 0.5 µg/mL (≈ 0.415 µM) | 0.125 µg/mL (≈ 0.104 µM) | < 0.125 µg/mL | – | 0.5 µg/mL (≈ 0.415 µM) | – | 0.5 µg/mL (≈ 0.415 µM) | – | 8 µg/mL (≈ 6.65 µM) | – | – | < 0.125 µg/mL | – | 4 µg/mL (≈ 3.32 µM) | 0.25 µg/mL (≈ 0.208 µM) | 1 µg/mL (≈ 0.831 µM) | 0.25 µg/mL (≈ 0.208 µM) | 16 µg/mL (≈ 13.3 µM) | 2 µg/mL (≈ 1.66 µM) | – | – |
| CCCCCCCC(=O)N[C@@H](CCN)C(=O)N[C@H](C(=O)N[C@@H](CCN)C(=O)N[C@H]1CCNC(=O)[C@H]([C@@H](C)O)NC(=O)[C@H](CCN)NC(=O)[C@H](CCN)NC(=O)[C@H](CCc2ccccc2)NC(=O)[C@@H](CC(C)C)NC(=O)[C@H](CCN)NC1=O)[C@@H](C)O (Octanoyl-[Dab]T[Dab][Dab][Dab][dL][hPhe][Dab][Dab]T; lactam 4-C) | 1 µg/mL (≈ 0.831 µM) | – | 0.125 µg/mL (≈ 0.104 µM) | – | 1 µg/mL (≈ 0.831 µM) | 4 µg/mL (≈ 3.32 µM) | 1 µg/mL (≈ 0.831 µM) | 1 µg/mL (≈ 0.831 µM) | 4 µg/mL (≈ 3.32 µM) | 4 µg/mL (≈ 3.32 µM) | 0.5 µg/mL (≈ 0.415 µM) | 0.25 µg/mL (≈ 0.208 µM) | – | – | – | 1 µg/mL (≈ 0.831 µM) | 0.25 µg/mL (≈ 0.208 µM) | 4 µg/mL (≈ 3.32 µM) | – | – | – |
| CCCCCCCC(=O)N[C@@H](CCN)C(=O)N[C@H](C(=O)N[C@@H](CCN)C(=O)N[C@H]1CCNC(=O)[C@H]([C@@H](C)O)NC(=O)[C@H](CCN)NC(=O)[C@H](CCN)NC(=O)[C@H](CC(C)C)NC(=O)[C@@H](Cc2cc(F)c(F)c(F)c2)NC(=O)[C@H](CCN)NC1=O)[C@@H](C)O (Octanoyl-[Dab]T[Dab][Dab][Dab][dPhe(3,4,5-F3)]L[Dab][Dab]T; lactam 4-C) | 0.25 µg/mL (≈ 0.201 µM) | – | < 0.125 µg/mL | – | – | – | – | – | – | – | – | < 0.125 µg/mL | < 0.125 µg/mL | – | < 0.125 µg/mL | 1 µg/mL (≈ 0.804 µM) | – | – | – | – | – |
| CCCCCCCC(=O)N[C@@H](CCN)C(=O)N[C@H](C(=O)N[C@@H](CCN)C(=O)N[C@H]1CCNC(=O)[C@H]([C@@H](C)O)NC(=O)[C@H](CCN)NC(=O)[C@H](CCN)NC(=O)[C@H](CC(C)C)NC(=O)[C@@H](Cc2ccc(Cl)cc2)NC(=O)[C@H](CCN)NC1=O)[C@@H](C)O (Octanoyl-[Dab]T[Dab][Dab][Dab][dPhe(4-Cl)]L[Dab][Dab]T; lactam 4-C) | 0.25 µg/mL (≈ 0.204 µM) | – | – | 16 µg/mL (≈ 13.1 µM) | – | – | – | 2 µg/mL (≈ 1.63 µM) | – | 16 µg/mL (≈ 13.1 µM) | – | 0.25 µg/mL (≈ 0.204 µM) | – | – | < 0.125 µg/mL | – | – | 16 µg/mL (≈ 13.1 µM) | 16 µg/mL (≈ 13.1 µM) | 0.25 µg/mL (≈ 0.204 µM) | MIC (Pseudomonas aeruginosa [21]): 4 µg/mL (≈ 3.27 µM) |
| CC[C@H](C)[C@@H]1NC(=O)[C@@H](CC(C)C)NC(=O)[C@H](CCN)NC(=O)[C@@H](NC(=O)[C@@H](CO)NC(=O)[C@@H](NC(=O)[C@H](CCN)NC(=O)c2ccc(-c3ccccc3)cc2)[C@@H](C)O)CCNC(=O)[C@H](CC(C)C)NC(=O)[C@H](CCN)NC(=O)[C@H](CCN)NC1=O ({Benzoyl(4-Ph)}-[Dab]T[dS][Dab][Dab][dL]I[Dab][Dab]L; lactam 4-C) | 1 µg/mL (≈ 0.827 µM) | 2 µg/mL (≈ 1.65 µM) | – | 2 µg/mL (≈ 1.65 µM) | 4 µg/mL (≈ 3.31 µM) | – | 4 µg/mL (≈ 3.31 µM) | 4 µg/mL (≈ 3.31 µM) | 1 µg/mL (≈ 0.827 µM) | 2 µg/mL (≈ 1.65 µM) | 2 µg/mL (≈ 1.65 µM) | – | – | – | 2 µg/mL (≈ 1.65 µM) | 4 µg/mL (≈ 3.31 µM) | 0.5 µg/mL (≈ 0.414 µM) | 1 µg/mL (≈ 0.827 µM) | – | 1 µg/mL (≈ 0.827 µM) | MIC (Acinetobacter baumannii [22]): 0.5 µg/mL (≈ 0.414 µM); MIC (Klebsiella pneumoniae [23]): 1 µg/mL (≈ 0.827 µM); MIC (Klebsiella pneumoniae [24]): 0.5 µg/mL (≈ 0.414 µM); Ratio (Pseudomonas aeruginosa [25]): 2; MIC (Pseudomonas aeruginosa [21]): 2 µg/mL (≈ 1.65 µM); Ratio (Pseudomonas aeruginosa [26]): 2 |
| POLYMYXIN B | 8 µg/mL | 0.125 µg/mL | 0.25 µg/mL | 16 µg/mL | 2 µg/mL | 16 µg/mL | 8 µg/mL | 2 µg/mL | 8 µg/mL | 4 µg/mL | 4 µg/mL | 0.25 µg/mL | 0.25 µg/mL | > 16 µg/mL | 0.5 µg/mL | 2 µg/mL | 0.25 µg/mL | > 16 µg/mL | 16 µg/mL | 8 µg/mL | MIC (Acinetobacter baumannii [22]): 0.125 µg/mL; MIC (Klebsiella pneumoniae [23]): > 16 µg/mL; MIC (Acinetobacter baumannii [27]): > 16 µg/mL; MIC (Klebsiella pneumoniae [24]): 16 µg/mL; MIC (Pseudomonas aeruginosa [21]): 4 µg/mL |
